What was measured:
[1] = tested on: O3-induced pulmonary inflammation; assay: O3-induced lung injury/pulmonary inflammation model, endotracheal administration, BALF analysis; assay type: in vivo, mice
Procedure: Because of the clinical relevance of environmental ozone exposure, and the experience of our team, with the murine model of O3-induced LI, pulmonary inflammation, and/or AHR, we have evaluated the anti-inflammatory efficacy of our PC-NSAID formulations using this robust model system. In these studies, all mice were pre-dosed (via endotracheal administration) with vehicle, indomethacin (at a dose range from 2 mg/kg), ibuprofen (5 mg/kg) or the equivalent (NSAID) doses of the PC-NSAID compositions, 1 h before and 1.5 hours after being exposed to either filtered room air or O3 (2 ppm) for 3 h and then 6 h or 24 h following the cessation of exposure airway pulmonary injury and inflammation were assessed by euthanizing the animals and collecting bronchoalveolar lavage fluid (BALF) using standard techniques. The O3 exposure protocol were chosen to allow for comparison with data of other investigators studying acute O3-induced pulmonary inflammation/AHR in mice.
In these studies, all mice were pre-dosed with vehicle (PBS), NSAID (indomethacin or ibuprofen) (at a dose of 2 mg NSAID/kg), or the equivalent (NSAID) dose of the corresponding PC-NSAID composition using an endo-tracheal delivery method refined that we refined (25 μL/rat) 1 h before and 90 minutes after being exposed to either filtered room air or O3 (2 ppm) for 3 h. The PC-Indomethacin composition was prepared dissolving indomethacin and purified PC (Phospholipon 90G from Lipoid) in a polar solvent (such as acetone), followed by vacuum removal of the solvent to form a purified PC-NSAID oil composition. This purified PC-NSAID oil composition is then added to an amount of phosphate buffered saline (PBS) followed by 30 minutes of sonication to provide a uniform composition at the appropriate dose for intra-tracheal administration. In some experiments, we prepared the PC-Indomethacin composition using Lipoid S-100 (a highly purified >98% soy PC product, as recommended by the manufacturer) instead of Phospholipon 90G, as well as comparing the effects of the purified soy PC products (S-100 and 90G) alone. […] Twenty-four hours (24 h) following the cessation of O3 exposure, pulmonary injury and inflammation were assessed by euthanizing the animals and collecting bronchoalveolar lavage (BALE) fluid using standard techniques. The collected BALF samples were centrifuged (with the cell pellet analyzed for white cells) and the supernatant analyzed for protein and prostaglandin E2, all markers of pulmonary inflammation.
The concentration of total BALF protein has been determined spectrophotometrically according to the Bradford protein assay procedure (Bio-Rad Laboratories, Inc.; Hercules, Calif.) while the levels of IL-6, MIP-2, PGE2 in the BALF are determined using a commercially available ELISA kit (Immunology Consultants Laboratories, Inc., Newberg, Oreg.), and MPO activity (by enzymatic kit provided CytoStore) in accordance to the manufacturer's instructions. Pulmonary inflammation has been determined by assessing the BALF cell differentials on Cytospin cytocentrifuge preparations. Hemoglobin has been measured by the benzidine assay.
We used a modification the protocol employed in pilot studies. In these earlier experiments, mice were pre-dosed with phosphate buffered saline (PBS) vehicle, the test NSAID (indomethacin or ibuprofen) (at a dose of 2 mg or 5 mg NSAID/kg), PC (4 mg/k or 10 mg/kg), respectively, or the equivalent (NSAID) dose of the PC-NSAID complex using an endotracheal delivery method refined in our lab (25 μL/rat) 1 h before and 90 minutes after being exposed to either filtered room air or O3 (2 ppm) for 3 h.

[2] = tested on: O3-induced pulmonary inflammation; assay: O3-induced pulmonary inflammation model, parenteral administration, BALF analysis; assay type: in vivo, mice; details: 10 mg/kg, BALF 24 h post exposure, FIG. 2, pilot study
Procedure: Using the O3-induced pulmonary inflammation model, we have evaluated and compared the anti-inflammatory efficacy of PC-Indomethacin vs indomethacin administered parenterally at a dose of 10 mg/kg vs vehicle control and evaluated the BALF 24 h post exposure. The white cell counts and protein concentrations of the BALF of the test groups are depicted in FIG. 2.

[3] = Storage stability of PC-NSAID oil and reconstituted dispersions; assay type: physicochemical; details: dispersed in sodium bicarbonate buffer, stored at 4° C., FIG. 8
Procedure: The proprietary method used to prepare the purified PC-NSAIDs takes advantage of the fact that pre-dissolving indomethacin (or ibuprofen) in acetone beforehand markedly increases the solubility of PC in this polar solvent (normally PC has a very limited solubility in acetone). Thereby the NSAID and purified soy PC (Lipoid S-100) (1:1 PC to NSAID molar ratio, which correspond to 2:1 PC to NSAID weight ratio) are dissolved in acetone, in this order and incubated at 40° C. until the solution clarifies. This solution is then placed in a rotor-evaporator for at least 12 hours to remove the volatile solvent. In the case of disaturated PC, such as dipalmitoyl-PC (DPPC) (which is the major phospholipid in pulmonary surfactant) we have learned that it is important to have 2-4 times more NSAID than PC (on a molar basis) to drive the solubility of the DPPC into the polar solvent. […] With the advice of the soy lecithin manufacturer (Lipoid Inc., Heidelberg, Germany) we are transitioning to their more purified soy lecithin product (Lipoid S-100) which already is approved for parenteral administration. […] FIGS. 10-13 indicate that these PC-NSAID formulations can readily be aerosolized into particles having a diameter between 2-6 μm for deep lung deposition.

[4] = ozone-exposed mice (2 ppm, 3 h), endotracheal dosing 1 h before and 90 min after, BALF 24 h post-exposure, *=p<0.05 vs air

## COc1ccc2c(c1)c(CC(=O)O)c(C)n2C(=O)c1ccc(Cl)cc1 [Indomethacin, indomethacin]
[1]; O3-exposed mice, endotracheal, BALF 24 h post, FIG. 3 (indomethacin), FIG. 9A (ibuprofen, PC is DPPC)
  white cell count in BALF, effect in words: increased white cell count relative to vehicle
[1]; O3-exposed mice, endotracheal, BALF 24 h post, FIG. 4 (indomethacin), FIG. 9B (ibuprofen, PC is DPPC)
  protein concentration of BALF, effect in words: did not cause a similar effect
[1]; O3-exposed mice, endotracheal, FIG. 6 (indomethacin), FIG. 9D (ibuprofen, PC is DPPC)
  PGE2 concentration in BALF, effect in words: statistically significant effect to markedly inhibit
[1]; [4]
  BALF Cell Number: 163 ± 53*
  BALF MPO: 2.12 ± 0.43* ng/mL
  BALF PGE2: 274 ± 141 pg/mL
  BALF Protein: 796 ± 135* μg/mL
[2]
  white cell counts and protein concentrations of the BALF (index of O3-induced pulmonary inflammation): appeared to inhibit
[3]
  stability in sodium bicarbonate buffer: degrades over time

Reference: US20130281405A1, “USE OF PC-NSAIDS TO TREAT AND/OR PREVENT PULMONARY INFLAMMATION” (priority 2012, published 2013)
